Assays:
[1] = test system: CGRP and SP nerve fibers innervating dog bladder; assay: Density of CGRP and SP axons in canine bladder (IHC, confocal); type: in vivo; conditions: dogs
Experimental: Canine bladders from a healthy dog (control) and from dogs with intravesical application of resiniferatoxin (RTX) at 2 different doses (25 mcg and 250 mcg) were prepared for immunohistochemistry and confocal laser microscopy to quantify the axons expressing substance P (SP) and calcitonin-gene related peptide (CGRP). Confocal images were obtained at 40× magnification using a Carl Zeiss scanning confocal laser microscope (model LSM 800, Jena, Germany) with Z-stack function.

[2] = test system: dogs with bladder cancer; assay: Lower urinary tract symptom scale in dogs with bladder cancer (Example D); type: in vivo, dog; conditions: 1.0 or 2.0 ug/ml intravesical
Experimental: Dogs with bladder cancer were treated with RTX as follows. Under general anesthesia, RTX was infused directly into the bladder using a foley catheter. RTX remained in the bladder for 30 minutes before removal.
6 dogs were enrolled and treated at the following doses: • <10 kg: RTX 25 ug diluted in 24 ml NaCl (1.0 ug/ml solution) • >10 kg: RTX 50 ug diluted in 48 ml NaCl (1.0 ug/ml solution)
7 dogs were then enrolled and treated at the following doses: • <10 kg: RTX 25 ug diluted in 11.5 ml NaCl (2.0 ug/ml solution) • 10-25 kg: RTX 50 ug diluted in 23 ml NaCl (2.0 ug/ml solution) • >25 kg: RTX 100 ug diluted in 46 ml NaCl (2.0 ug/ml solution)
Three dogs were treated twice with at least 28 days between treatments. Two dogs were lost to follow-up after day 0.
The primary endpoint was assessment of improvement of lower urinary tract signs with a 4-point lower urinary tract symptom scale (character of urination/degree of straining; frequency of urination (daytime); frequency of urination (nighttime); and blood in urine). The secondary endpoints were anti-cancer effect, as measured by bladder ultrasound, and quality of life.

[3] = test system: cats with FIC (Feline Idiopathic Cystitis); assay: Cystitis Events Survey in cats with Feline Idiopathic Cystitis; type: in vivo, cat; conditions: for Cystitis Improvement ≥2 Point, cats n/N / Cystitis Improvement ≥3 Point, cats n/N / Cystitis Improvement ≥2 Point, percent of cats / Cystitis Improvement ≥3 Point, percent of cats: Day 28
Source text: The Cystitis Events Survey consists a 5-point scale, ranging from 0=normal cat to 5=very severe sign of cystitis. Clinical signs of cystitis included in this survey are: increased frequency of urination; straining while urinating; crying out/vocalizing while urinating; presence of blood in urine; urination outside of litter box; and increased grooming around perineum.
The use of the Cystitis Events Survey was exploratory, and no strict definition of success was applied to the results. However, and based on published literature, the results were described as follows: (1) percentage of cats per cohort with an average improvement of 2 or more points and no increase in any individual score on Day 28; and (2) percentage of cats per cohort with an average improvement of 3 or more points and no increase in any individual score on Day 28.
[…] Intravesical instillation: After the cat has reached an adequate anesthesia level, the perineal area was prepared using a standard aseptic technique. After preparation, a urinary catheter (type and size decided on a case by case basis) was placed using aseptic technique. Then, the urinary bladder was emptied and flushed with 20 ml of sterile saline. Once the flush solution was removed, the RTX solution was infused through the urinary catheter over 2 minutes. Once the total volume of the solution is infused, the solution was left in the urinary bladder for 20 min. At the end of this period the IVP (investigational veterinary product) solution was removed. Finally, the urinary catheter was removed, and the perineal area was flushed with 20 ml of saline. The total amount of solution removed from the bladder was recorded.
24 cats were treated and the cohorts and their respective IVP treatments are described in the table 9 below. The cohorts were populated and dosed sequentially. Cats enrolled in Cohorts 2, 3 and 4 were dosed at least 3 days after the previous cohort closed.

[4] = Safety monitoring in FIC cats; type: in vivo, cat
Experimental: As a way of monitoring the safety of the experiment for the enrolled cats, a physical examination was performed on the cats on Days 14 and 28. Measurements for body weight, body temperature, heart rate and respiratory rate were recorded. Body weight was collected for all cohorts, while the remaining variables were collected for Cohort 1, which received the highest total dose of RTX (25 μg/25 mL). […] Results were also collected for complete blood count (CBC), serum chemistry, urinalysis and culture.

[5] = 6.25 μg (0.25 μg/mL), Day 0, n 6
[6] = 6.25 μg (0.25 μg/mL), Day 28, n 6
[7] = 12.5 μg (0.5 μg/mL), Day 0, n 6
[8] = 12.5 μg (0.5 μg/mL), Day 28, n 5
[9] = 12.5 μg (1.25 μg/mL), Day 0, n 6
[10] = 12.5 μg (1.25 μg/mL), Day 28, n 6

C=C(C)[C@]12C[C@@H](C)[C@@]34O[C@](Cc5ccccc5)(O[C@@H]1[C@@H]3C=C(COC(=O)Cc1ccc(O)c(OC)c1)C[C@]1(O)C(=O)C(C)=C[C@@H]41)O2 [RTX, resiniferatoxin]
CGRP and SP axons innervating the bladder body ([1]; 25 mcg and 250 mcg intravesical, vs control dog): drastic reduction | density of CGRP and SP nerve fibers innervating the body, trigon, and fundus ([1]; 25 mcg and 250 mcg, vs control tissue): reduced | effect of 250 mcg in reducing density of CGRP and SP compared with 25 mcg ([1]; 250 mcg vs 25 mcg): greater effect | Improvement of at Least 1 Score, percent of dogs ([2]; Day 7, n = 11): 54.5% | Improvement of at Least 2 Scores, percent of dogs ([2]; Day 7, n = 11): 36.4% | Improvement of at least 1 score (lower urinary tract symptom scale), number of dogs ([2]; Day 7, n = 11): 6 | Improvement of at least 2 scores (lower urinary tract symptom scale), number of dogs ([2]; Day 7, n = 11): 4 | Improvement of at Least 1 Score, percent of dogs ([2]; Day 14, n = 11): 72.7% | Improvement of at Least 2 Scores, percent of dogs ([2]; Day 14, n = 11): 45.5% | Improvement of at least 1 score (lower urinary tract symptom scale), number of dogs ([2]; Day 14, n = 11): 8 | Improvement of at least 2 scores (lower urinary tract symptom scale), number of dogs ([2]; Day 14, n = 11): 5 | Improvement of at Least 1 Score, percent of dogs ([2]; Day 28, n = 8): 75.0% | Improvement of at Least 2 Scores, percent of dogs ([2]; Day 28, n = 8): 50.0% | Improvement of at least 1 score (lower urinary tract symptom scale), number of dogs ([2]; Day 28, n = 8): 6 | Improvement of at least 2 scores (lower urinary tract symptom scale), number of dogs ([2]; Day 28, n = 8): 4 | Improvement of at Least 1 Score, percent of dogs ([2]; Day 56, n = 5): 100% | Improvement of at Least 2 Scores, percent of dogs ([2]; Day 56, n = 5): 60.0% | Improvement of at least 1 score (lower urinary tract symptom scale), number of dogs ([2]; Day 56, n = 5): 5 | Improvement of at least 2 scores (lower urinary tract symptom scale), number of dogs ([2]; Day 56, n = 5): 3 | Improvement of at Least 1 Score, percent of dogs ([2]; Day 84, n = 3): 100% | Improvement of at Least 2 Scores, percent of dogs ([2]; Day 84, n = 3): 66.7% | Improvement of at least 1 score (lower urinary tract symptom scale), number of dogs ([2]; Day 84, n = 3): 3 | Improvement of at least 2 scores (lower urinary tract symptom scale), number of dogs ([2]; Day 84, n = 3): 2 | cystitis events survey, Maximum [3, 5]: 18.0 | cystitis events survey, Mean [3, 5]: 13.00 | cystitis events survey, Median [3, 5]: 12.00 | cystitis events survey, Minimum [3, 5]: 10.0 | cystitis events survey, Maximum [3, 6]: 14.0 | cystitis events survey, Mean [3, 6]: 8.33 | cystitis events survey, Median [3, 6]: 8.00 | cystitis events survey, Minimum [3, 6]: 3.0 | Cystitis Improvement ≥2 Point, cats n/N ([3]; 6.25 μg/25 mL (Cohort 2)): 4/6 | Cystitis Improvement ≥3 Point, cats n/N ([3]; 6.25 μg/25 mL (Cohort 2)): 2/6 | cystitis events survey, Maximum [3, 7]: 13.0 | cystitis events survey, Mean [3, 7]: 11.33 | cystitis events survey, Median [3, 7]: 11.00 | cystitis events survey, Minimum [3, 7]: 10.0 | cystitis events survey, Maximum [3, 8]: 7.0 | cystitis events survey, Mean [3, 8]: 5.20 | cystitis events survey, Median [3, 8]: 5.00 | cystitis events survey, Minimum [3, 8]: 3.0 | cystitis events survey, Maximum [3, 9]: 16.0 | cystitis events survey, Mean [3, 9]: 12.5 | cystitis events survey, Median [3, 9]: 12.50 | cystitis events survey, Minimum [3, 9]: 9.0 | cystitis events survey, Maximum [3, 10]: 8.0 | cystitis events survey, Mean [3, 10]: 5.33 | cystitis events survey, Median [3, 10]: 6.00 | cystitis events survey, Minimum [3, 10]: 3.0 | Cystitis Improvement ≥2 Point, cats n/N ([3]; 12.5 μg/10 mL (Cohort 4)): 6/6 | Cystitis Improvement ≥2 Point, percent of cats ([3]; 12.5 μg/10 mL (Cohort 4)): (100%) | Cystitis Improvement ≥3 Point, cats n/N ([3]; 12.5 μg/10 mL (Cohort 4)): 6/6 | Cystitis Improvement ≥3 Point, percent of cats ([3]; 12.5 μg/10 mL (Cohort 4)): (100%) | Cystitis Improvement ≥2 Point, cats n/N ([3]; 12.5 μg/25 mL (Cohort 3)): 5/5 | Cystitis Improvement ≥2 Point, percent of cats ([3]; 12.5 μg/25 mL (Cohort 3)): (100%) | Cystitis Improvement ≥3 Point, cats n/N ([3]; 12.5 μg/25 mL (Cohort 3)): 5/5 | Cystitis Improvement ≥3 Point, percent of cats ([3]; 12.5 μg/25 mL (Cohort 3)): (100%) | cystitis events survey, Maximum ([3]; 25 μg (1 μg/mL), Day 0, n 6): 22.0 | cystitis events survey, Mean ([3]; 25 μg (1 μg/mL), Day 0, n 6): 16.67 | cystitis events survey, Median ([3]; 25 μg (1 μg/mL), Day 0, n 6): 16.50 | cystitis events survey, Minimum ([3]; 25 μg (1 μg/mL), Day 0, n 6): 11.0 | cystitis events survey, Maximum ([3]; 25 μg (1 μg/mL), Day 28, n 5): 7.0 | cystitis events survey, Mean ([3]; 25 μg (1 μg/mL), Day 28, n 5): 4.40 | cystitis events survey, Median ([3]; 25 μg (1 μg/mL), Day 28, n 5): 4.00 | cystitis events survey, Minimum ([3]; 25 μg (1 μg/mL), Day 28, n 5): 2.0 | Cystitis Improvement ≥2 Point, cats n/N ([3]; 25 μg/25 mL (Cohort 1)): 4/5 | Cystitis Improvement ≥2 Point, percent of cats ([3]; 25 μg/25 mL (Cohort 1)): (80%) | Cystitis Improvement ≥3 Point, cats n/N ([3]; 25 μg/25 mL (Cohort 1)): 4/5 | Cystitis Improvement ≥3 Point, percent of cats ([3]; 25 μg/25 mL (Cohort 1)): (80%) | complete blood count (CBC), serum chemistry, urinalysis and culture [4]: No significant changes were observed | Adverse events in other cohorts ([4]; Cohorts 2-4): considered unrelated to the treatment or not serious | body weight, body temperature, heart rate and respiratory rate ([4]; Days 14 and 28, body weight all cohorts, other variables Cohort 1 (25 μg/25 mL)): No clinically significant changes were observed | Tolerability ([4]; all doses, at administration and through 28-day follow-up): overall well tolerated | serious adverse events considered related to the treatment ([4]; death of a Cohort 1 cat (25 μg/25 mL)): One serious adverse event
